Among the data in US8148385B2, “Substituted [1,2,3] triazolo[4,5-d]pyrimidine derivatives as ADP P2Y12 receptor antagonists” (Janssen Pharmaceutica N.V., priority 2006, dated 2012) are IC50 values, retold here.

One assay concerns the target T1, ADP P2Y12 (Homo sapiens, UniProt Q9H244).
T1 construct: expressed in transfected cells
The assay is described as follows: FLIPR calcium assay transducing Gi-coupled signaling to the Gq pathway (inhibition of calcium mobilization). The format is cell-based. The following applies: HEK 293 cells co-transfected with P2Y12 and Gqi5, ADP at EC60-70 dose. The text has this:
A FLIPR Calcium Assay Transducing Gi-Coupled Signaling to the Gq Pathway
The ADP P2Y12 subtype is a Gi coupled GPCR, which mediates inhibition of adenylate cyclase leading to decreased cAMP while Gq proteins primarily activate phospholipase C, which stimulates inositol-1,4,5-triphosphate (IP3) formation and a subsequent increase in intracellular Ca^2+ concentration, which can be easily measured by FLIPR. Prior to the development of a method to convert a Gi coupled GPCR signaling to a Gq coupled GPCR signaling, a significant barrier existed for the functional testing and screening of Gi coupled GPCRs. One popular method, GTPγS migration, is slow, produces a small signal and generates radioactive waste. The discovery that a small switch in the amino acid sequence in the Gi protein could convert it to a protein mediating a Gq coupled response has led to the development of robust, high throughput assays for this valuable receptor subtype.
The FLIPR-based HTS assay transducing the Gi signaling to the Gq pathway is described below.
pcDNA3hygroP2Y12 containing a hygromycin resistance gene and pLEC1-Gqi5-HA containing a neomycin resistance gene (licensed from Molecular Devices, Sunnyvale, Calif.) were co-transfected into Human embryonic kidney (HEK) 293 cells with SuperFect (Qiagen, Valencia, Calif.). Cell clones were selected in the presence of 600 μg/ml hygromycin B (Life Technologies, Carlsbad, Calif.) and 1 mg/ml of G418 (Mediatech, Herndon, Va.). Drug resistant colonies were picked and screened by FLIPR and the gene expression was further confirmed by RT-PCR. Positive clones were maintained in growth medium (DMEM supplemented with 10% FBS, 1×p/s) containing 400 μg/ml of G418 and 200 μg/ml of hygromycin.
The day before the assay, cells are seeded in clear, flat-bottom black-wall, tissue culture treated polystyrene 96- or 384-well plates and incubated at 37° C., 5% CO2. 50 μl of complete dye loading solution (FLIPR Calcium Assay Kit, Molecular Devices) was added to each well containing 100 μl of culture media. The cells were incubated for at least 30 min at 37° C., in 5% CO2 before initiating the assay on the FLIPR. The agonist effect of ADP was tested and EC50 was determined prior to compound testing. The EC60-70 dose was used.
The antagonist compounds were prepared at 4× and the agonists were diluted at 5× the concentration desired in the test wells, and then aliquoted into the sample plates. The sample plates and the cell plate were placed in the FLIPR assay chamber. A first addition (50 μl) was made at the start of reading and a second addition (50 μl) was made after 5 min of reading. Raw fluorescence data was exported for each well and tabulated versus time within an ASCII file. Data was then imported into Excel and the peak response over the basal level was determined. The percent inhibition for each compound was calculated by the change in fluorescent density as a % inhibition of the control ADP response to obtain an IC50, as shown in Table 1 (wherein N/A means Not Applicable).

Another assay addresses T2, P2Y12 receptor (Homo sapiens, UniProt Q9H244).
T2 construct: expressed in transfected cells
The assay can be described thus: Whole cell receptor binding assay for 2-MeS[3H]-ADP. Particulars: whole HEK 293 cells transfected with P2Y12; 2-MeS[3H]-ADP 3 nM; 30 min at 37° C.; read-out: Inhibition of Receptor Binding IC50. The procedure:
A whole cell-binding assay for 2-MeS [^3H]-ADP (Custom synthesized by Amersham BioScience, Piscataway, N.J.) to the P2Y12 receptor was performed.
A P2Y12 cDNA containing hygromycin resistant gene was transfected in HEK 293 cells. A stable cell line was obtained by a cloning selection method. The cells were cultured in DMEM supplemented with 10% FBS and 1× of p/s.
On the day of the assay, the cells were harvested and resuspended in 0.25% BSA-DMEM and adjusted to a cell concentration of 1.6×10^6/ml. […] The reaction was then incubated for 30 min at 37° C. and stopped by adding cold DMEM. […] The plates were dyed in a 37° C. oven for 1-2 hours and 50 μl of MicroScint-20 (PerkinElmer) was added to each well. The radioactivity was measured using a TOPCOUNT beta counter (Packard).

For another assay, the system named is washed platelets. The assay can be described thus: In vitro platelet aggregation. The format is cell-based. Particulars: Homo sapiens, washed platelets from healthy volunteers, agonist (ADP) at 60-70% aggregation, % inhibition of control ADP response. The procedure: Platelet aggregation studies were performed according to a published method (Bednar, B., Condra, C., Gould, R. J., and Connolly, T. M., Throm. Res., 77:453-463 (1995). Platelet-rich plasma (PRP) concentrates prepared from healthy volunteers who were aspirin free for at least 7 days by venipuncture using ACD-A as anticoagulant was purchased from Biological Specialties, Inc. (Colmar, Pa.). PRP was centrifuged at 730 g for 15 min. The platelet pellet was washed twice in CGS buffer (13 mM sodium citrate, 30 mM glucose, 120 mM NaCl, pH 6.5) containing 1 μ/ml apyrase (grade V, Sigma-Aldrich, St. Louis, Mo.), 1 mM EGTA, and resuspended in Tyrode's buffer (140 mM NaCl, 2.7 mM KCl, 12 mM NaHCO3, 0.76 mM Na2HPO4, 5.5 mM dextrose, 5.0 mM Hepes, 0.2% BSA, pH 7.4). The platelets were diluted to 3×10^8 platelets/ml and kept >45 min at 37° C. before use. 105 μl of washed platelets, 2 mM CaCl2 and […] of fibrinogen were added to a 96-well microliter plate.
Platelet aggregation was initiated by the addition of serial concentrations of ADP (BioData Corp. Horsham, Pa.). Buffer was added to one set of control wells. The assay plate was stirred constantly and intermittently placed in a microplate reader (Softmax, Molecular Devices, Menlo Park, Calif.) to read optical density (650 nm) at 0 and 5 minutes after the addition of the compound solutions. Aggregation was calculated as the decrease in optical density between the time 0- and 5-min measurements and expressed as % of aggregation. For the inhibition assay, platelet aggregation was conducted as described above except for compound additions. Test compounds were prepared in 100% DMSO and stored.
On the day of the assay, test compounds were diluted in the buffer containing 3% of DMSO as a 10× working solution. 15 μl of compound solutions were added to 105 μl of platelets 5 min prior to the addition of CaCl2 and fibrinogen.

T1 sequence (Q9H244 whole entry): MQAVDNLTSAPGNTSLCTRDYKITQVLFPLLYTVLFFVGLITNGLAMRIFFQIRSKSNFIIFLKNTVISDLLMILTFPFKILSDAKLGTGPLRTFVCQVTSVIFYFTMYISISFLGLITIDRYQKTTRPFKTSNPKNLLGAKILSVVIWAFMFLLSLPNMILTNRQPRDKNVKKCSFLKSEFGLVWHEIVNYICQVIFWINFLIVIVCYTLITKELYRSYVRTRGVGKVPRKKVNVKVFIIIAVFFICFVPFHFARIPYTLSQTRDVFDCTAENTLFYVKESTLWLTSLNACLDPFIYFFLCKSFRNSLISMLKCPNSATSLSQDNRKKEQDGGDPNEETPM
T2 sequence (Q9H244 whole entry): as above

Turning to `CCCCNc1nc(SCCC)nc2c1nnn2[C@@H]1C=C[C@H](O)[C@@H](O)[C@H]1O` [Cpd 1, (1S,2R,3S,6R)-6-(7-butylamino-5-propylsulfanyl-[1,2,3]triazolo[4,5-d]pyrimidin-3-yl)-cyclohex-4-ene-1,2,3-triol], the figures for the IC50 on ADP P2Y12, at P2Y12 receptor and in the assay with washed platelets were 2120 nM, 9030 nM and 15200 nM, respectively.
Consider `CCCSc1nc(NCC2CCCN2CC)c2nnn([C@@H]3CC[C@H](O)[C@@H](O)[C@H]3O)c2n1` (stereo partly drawn) [Cpd 21, (1S,2R,3S,4R)-4-{7-[(1-ethyl-pyrrolidin-2-ylmethyl)-amino]-5-propylsulfanyl-[1,2,3]triazolo[4,5-d]pyrimidin-3-yl}-cyclohexane-1,2,3-triol], for which the IC50 at ADP P2Y12 and in the assay with washed platelets was above 30000 nM throughout.
As to `CCCSc1nc(N[C@@H]2C[C@H]2c2ccccc2)c2nnn([C@@H]3C=C[C@H](O)[C@@H](O)[C@H]3O)c2n1` (mixture of isomers) [Cpd 5, (1S,2R,3S,6R)-6-{7-[(1RS,2SR)-2-phenyl-cyclopropylamino]-5-propylsulfanyl-[1,2,3]triazolo[4,5-d]pyrimidin-3-yl}-cyclohex-4-ene-1,2,3-triol], the IC50 – broadly, the concentration at which inhibition is half-maximal – came to 745 nM at ADP P2Y12, 2100 nM at P2Y12 receptor and 5050 nM in the assay with washed platelets.
For the molecule `CCCSc1nc(N[C@@H]2C[C@H]2c2ccccc2)c2nnn([C@H]3[C@H](O)[C@H](O)[C@@H](O)[C@H](O)[C@@H]3O)c2n1` (racemic) [Cpd 9, (1R,2R,4S,5S)-6-{7-[(1RS,2SR)-phenyl-cyclopropylamino]-5-propylsulfanyl-[1,2,3]triazolo[4,5-d]pyrimidin-3-yl}-cyclohexane-1,2,3,4,5-pentaol], the IC50 on ADP P2Y12 came out at 2960 nM; at P2Y12 receptor it was 5040 nM; in the assay with washed platelets it was 15000 nM.
In the case of `CCCSc1nc(NC[C@H]2CCCO2)c2nnn([C@@H]3CC[C@H](O)[C@@H](O)[C@H]3O)c2n1` [Cpd 17, (1S,2R,3S,4R)-4-(5-propylsulfanyl-7-{[(2R)-tetrahydro-furan-2-ylmethyl]-amino}-[1,2,3]triazolo[4,5-d]pyrimidin-3-yl)-cyclohexane-1,2,3-triol], the IC50 at ADP P2Y12 and with washed platelets was above 30000 nM each time.
For `CCCSc1nc(N[C@@H]2C[C@H]2c2ccccc2)c2nnn([C@@H]3C=C[C@H](OCC(=O)O)[C@@H](O)[C@H]3O)c2n1` (mixture of isomers) [Cpd 11, [(1S,4R,5S,6S)-5,6-dihydroxy-4-{7-[(1RS,2SR)-2-phenyl-cyclopropylamino]-5-propylsulfanyl-[1,2,3]triazolo[4,5-d]pyrimidin-3-yl}-cyclohex-2-enyloxy]-acetic acid], the IC50 at ADP P2Y12 worked out at 2200 nM; at P2Y12 receptor, 1490 nM; with washed platelets, 2910 nM.
In the case of `CCCSc1nc(N[C@@H]2C[C@H]2c2ccccc2)c2nnn([C@@H]3CC[C@H](O)[C@@H](O)[C@H]3O)c2n1` (mixture of isomers) [Cpd 14, (1S,2R,3S,4R)-4-{7-[(1RS,2SR)-2-phenyl-cyclopropylamino]-5-propylsulfanyl-[1,2,3]triazolo[4,5-d]pyrimidin-3-yl}-cyclohexane-1,2,3-triol], the IC50 amounted to 456 nM at ADP P2Y12, 1350 nM on P2Y12 receptor and 3100 nM in the assay with washed platelets.
